These results are taken from patent publication US10406120B2, “Methods and compositions for treating kidney disorders” (Golden Biotechnology Corporation, priority 2013, dated 2019).

The nature of assay [1]: FSGS model: renal histopathology (H&E). Type of assay: in vivo, BALB/c mice. To be noted: FSGS mice, 50 mg/kg by gavage daily, day 14 to day 21, vs control FSGS mice. The method, then:
Experiments described herein were performed on 8-week-old female BALB/c mice. The FSGS mice were injected intravenously with a single dose of adriamycin (0.1 mg/10 g body weight). […] BALB/c mice intraperitoneal injected with normal saline were used as normal controls, while ASLN mice given vehicle (corn oil) by gavage were used as disease controls. Mice were killed at day 7, 14, or 21 after disease induction, and spleen, renal cortical tissue, and blood samples collected and stored appropriately until analysis. All animal experiments were performed with the ethical approval of the Institutional Animal Care and Use Committee of The National Defense Medical Center, Taiwan and performed according to the ethical rules in the NIH Guide for the Care and Use of Laboratory Animals.
Formalin-fixed and paraffin-embedded renal sections were prepared as described in Shui et al. for renal pathologic evaluation. (Shui, et al., Transl Res, 150: 216-222, 2007) Renal pathology and scoring of renal lesions were performed according to the known method disclosed in Shui. […] The number of glomeruli with EPHLs was expressed as a percentage of the total number of evaluated glomeruli according to methods disclosed before (see for example, Shui, et al., Nephrol Dial Transplant, 21: 1794-1802, 2006; Ka, et al., Nephrol Dial Transplant, 21: 288-298, 2006).

Assay [2] in a line: FSGS model: urine protein and renal function (BUN, Cr). Conditions: FSGS mice. Format: in vivo, BALB/c mice. The method, then: (§1) Experiments described herein were performed on 8-week-old female BALB/c mice. The FSGS mice were injected intravenously with a single dose of adriamycin (0.1 mg/10 g body weight). The mice were given Compound 1 six hours before adriamycin injection by gavage daily till sacrifice. BALB/c mice intraperitoneal injected with normal saline were used as normal controls, while ASLN mice given vehicle (corn oil) by gavage were used as disease controls. Mice were killed at day 7, 14, or 21 after disease induction, and spleen, renal cortical tissue, and blood samples collected and stored appropriately until analysis. All animal experiments were performed with the ethical approval of the Institutional Animal Care and Use Committee of The National Defense Medical Center, Taiwan and performed according to the ethical rules in the NIH Guide for the Care and Use of Laboratory Animals.
Urine samples were collected in metabolic cages at day 3, 7, 14, and 21, and urine protein was determined as described previously. (Shui, et al., Nephrol Dial Transplant, 21: 1794-1802, 2006) Serum samples were collected at day 7, 14, or 21 when mice were sacrificed to measure serum levels of BUN and Cr.

The next assay relates to mononuclear leukocytes. Briefly: AcP-IgAN model: leukocyte infiltration in the kidney (IF/IHC). Type of assay: in vivo, B cell-deficient mice. Conditions: AcP-IgAN mice. Here is the method:
(§2) B cell-deficient mice (B6.129S2-Igh-6tm1Cgn/J) were obtained from the Academia Sinica (Professor John T. Kung, Institute of Molecular Biology), and maintained at the animal center of the National Defense Medical Center, Taipei, Taiwan. AcP-IgAN was induced in the mice by daily injection of purified IgA anti-phosphorylcholine antibodies and pneumococcal C-polysaccharide (PnC) as described previously (Chao, et al., Kidney Int. 70:283-297; 2006). All animal experiments were performed with the approval of the Institutional Animal Care and Use Committee of The National Defense Medical Center, Taiwan, and were consistent with the NIH Guide for the Care and Use of Laboratory Animals.
For IHC, formalin fixed and paraffin embedded tissue sections or frozen sections were incubated with against IL-6 (R&D Systems, MN), MCP-1 (Santa Cruz, Calif.), F4/80 (monocytes/macrophages; Serotec, N.C.), collagen IV (Southern Biotech, AL), TGF-β1 (Santa Cruz), phopsho-NFκB p65 (Cell Signaling, MA), CD3 (pan-T cell; Serotec), CD4 (T helper cell; BioLegend, CA), CD8 (cytotoxic T cell), CD11b (macrophages/neutrophils), or CD11c (dendritic cells) (BD Biosciences, CA) antibodies. The FITC-conjugated, Alexa Fluor 488-conjugated (Invitrogen, CA) or horseradish peroxidase (HRP) conjugated secondary antibodies (DAKO, Denmark) were then applied to the sections. […]

The test system of assay [3] is MCP-1. Briefly: AcP-IgAN model: renal MCP-1 mRNA and protein. Type of assay: in vivo, B cell-deficient mice. Conditions: AcP-IgAN mice. The method, then: as §2
For IHC, formalin fixed and paraffin embedded tissue sections or frozen sections were incubated with against IL-6 (R&D Systems, MN), MCP-1 (Santa Cruz, Calif.), F4/80 (monocytes/macrophages; Serotec, N.C.), collagen IV (Southern Biotech, AL), TGF-β1 (Santa Cruz), phopsho-NFκB p65 (Cell Signaling, MA), CD3 (pan-T cell; Serotec), CD4 (T helper cell; BioLegend, CA), CD8 (cytotoxic T cell), CD11b (macrophages/neutrophils), or CD11c (dendritic cells) (BD Biosciences, CA) antibodies. The FITC-conjugated, Alexa Fluor 488-conjugated (Invitrogen, CA) or horseradish peroxidase (HRP) conjugated secondary antibodies (DAKO, Denmark) were then applied to the sections. Hematoxylin or 4′,6-diamidino-2-phenylindole (DAKO) was used in the counter staining for nuclei.
Total cortical kidney RNA was extracted with TriZOL reagents (Invitrogen) from cortical tissue of the kidney. For first-strand cDNA synthesis, 1.5 μg of total RNA was used in a single-round reverse transcriptase reaction. The reaction mixture consisted of 0.9 μl of Oligo (dT) 12 to 18 primer, 1.0 mM deoxyribonucleotide triphosphate (dNTP), 1 μl first strand buffer, 0.4 mM dithiothreitol, 80 U of RNaseout recombinant ribonuclease inhibitor, and 300 U of superscript II RNase H (Invitrogen). Real-time PCR was performed on an ABI Prism 7700 Sequence Detection System (Applied Biosystems, CA). […]

For the next assay, the system named is GPx. Briefly: FSGS model: GPx activity in the kidney. Format: in vivo, BALB/c mice. To be noted: FSGS mice, day 7 until day 21, vs control FSGS mice. The method, then:
as §1
GPx activity in renal tissues was measured using a commercial Glutathione Peroxidase Assay kit (Cayman, Mich., USA) according to the manufacturer's instructions Enzyme activity was expressed relative to the protein concentration of glomerular homogenates.

Assay [4] relates to MCP-1. Briefly: AcP-IgAN model: serum MCP-1 ELISA. Format: in vivo, B cell-deficient mice. Conditions: AcP-IgAN mice, day 3 until day 28, vs control AcP-IgAN mice; only baseline levels. The method, then: as §2
Serum levels of IL-1β (eBiosceience, CA), IL-6 (eBiosceience), IL-18 (MBL, Japan), and MCP-1 (eBiosceience) were measured using commercial ELISA kits according to the manufacturer's instructions.
(An ELISA detects its analyte on a solid surface through an enzyme-linked reagent.)

Setting [5] is: 50 mg/kg by gavage daily, day 14 to day 21, vs control FSGS mice.
[6] abbreviates: day 7, among normal control, control FSGS and FSGS+Antroq mice.
Setting [7] is: day 28, vs control AcP-IgAN mice.

In the case of `COC1=C(OC)[C@H](O)[C@H](C/C=C(\C)CC/C=C(\C)CCC=C(C)C)[C@@H](C)C1=O` [Compound 1, Antroquinonol], the “progressive renal lesions (sclerotic lesions, glomeruli containing EPHL, peri-glomerular mononuclear leukocyte infiltration), H&E” value in assay [1] was “greatly reduced”. For the same compound, in assay [2] (50 mg/kg by gavage daily, day 7 to day 21, vs control FSGS mice (vehicle)), the urine protein levels entry is reported as “greatly suppressed”. In assay [2] (setting [5]), the “serum levels of blood urea nitrogen (BUN)” value is listed as “much better renal function” and the “serum levels of creatinine (Cr)” value was “much better renal function”. Also, in assay [2] (setting [6]), the “serum levels of BUN” value is listed as “no significant difference” and the “serum levels of Cr” value was “no significant difference”. Besides, the “infiltration of pan-T cells, neutrophils and monocytes/macrophages in the kidney” value in the assay with mononuclear leukocytes (day 3) was “no detectable signals”. Also, the “infiltration of inflammatory cells (CD3^+, CD4^+, CD8^+, CD11c+, F4/80+, CD11b+) in the kidney” value in the assay with mononuclear leukocytes (day 28, vs AcP-IgAN mice) is given as “significantly decreased infiltration”. Besides, the “renal expression levels of mRNA and protein of MCP-1” value in the assay on MCP-1 [3] (day 3) is “no such effect”. Moreover, in the assay with MCP-1 [3] (setting [7]), the “renal expression levels of mRNA of MCP-1” value is “significantly reduced” and the “renal expression levels of protein of MCP-1” value is “significantly reduced”. Further, the “GPx activity in the kidney” value in the assay on GPx was “recovered GPx activity”. Also, the “serum levels of MCP-1 (elevation)” value with MCP-1 [4] was “greatly inhibited”.
